One data set concerns B. tabaci antennae. In words: Electroantennography (EAG). Further details: species or system Bemisia tabaci. The method, then:
Electroantennography (EAG) was employed to confirm the responsiveness of the atennae to 10-3 dilution in paraffin oil (Uvasol, Merck) of the chemicals described. Small pieces of filter paper (2 cm2; Schleicher & Schuell, Dassel, Germany) were soaked with 100 μl of the standard dilution or paraffin oil only (control). The filter paper was inserted into a 10-ml glass syringe (Poulten & Graf GmbH, Wertheim, Germany). A reproducible stimulus was supplied by puffing 5 ml of air over the antenna (Schutz et al., 1999). The EAG response was recorded for each standard dilution. The response to paraffin oil was considered as a negative control and was subtracted from all the reported EAG measurements.

The test system of data set [1] is B. tabaci. In words: Correlation of identified headspace volatiles with whitefly repellence ranking (stepwise linear regression, MANOVA). Set-up: species or system Bemisia tabaci biotype Q. The following applies: for Effect (semiochemical associated to B. tabaci repellence or attraction): first Table 5; for association (B. tabaci repellence or attraction): second Table 5; for Effect on insects: volatile related to whitefly repellence or attraction (Table 1). The text has this: In a large experiment (see Example 2), the headspace of 16 wild tomato accessions and 5 cultivated tomato lines were sampled and analyzed (6 repeats). In total 51 compounds were identified to be present in the captured headspace. Furthermore, the level of repellency/attraction of each of the 21 tomato accessions was established in free choice bioassays with B. tabaci (biotype Q), using a ranking scale of 1-7 (1=highest repellency to 7=lowest repellency). Next, the identified volatile compounds were correlated to the repellency/attraction score of each tomato accession through a linear regression analysis.
The headspace of 16 wild tomatoes and 5 cultivated tomatoes (Table 4) was collected. Undisturbed 3-weeks old tomato plants were transferred to 40-L desiccators. The headspace was sampled during 24 h including a 16 h light period, by trapping of the volatile components as described above. […] Each accession was sampled 6 times.
In a statistical analysis the correlation between the identified components of the tomato headspace and the ranking of whitefly repellence measured in the bioassays was made. Using two approaches, a stepwise-linear regression analysis and a MANOVA, 8 volatiles were identified to be correlated to whitefly repellence, whereas 24 other volatile compounds were eliminated as non-relevant for repellency or attraction.

Data set [2] deals with B. tabaci. In words: Free choice bioassay with pure volatiles or mixtures added to one of four cv Moneymaker plants. In kind it is in vivo, Bemisia tabaci biotype Q (Almeria population). To be noted: for behavioural effect (significance of effect on B. tabaci behaviour in choice-assays): significance stars, key not given; for effect on whitefly behaviour: one of four Moneymaker plants treated. The source says:
For bioassays with headspace (total headspace or single compounds) four potted tomato plants (S. esculentum cv Moneymaker) were placed in a square setup at a distance of 50 cm. One hundred and fifty adult whiteflies were released and recorded as described above. To test the effect of selected headspace components on repellence, synthetic standards (FLUKA) were applied to either 10 filter-papers discs (Whatman, 25 mm diameter) or 10 rubber septa (Sigma Aldrich, Z167258). Prior to loading, the septa were placed in CH2Cl2 for 24 h and air-dried for 3 days (Heath et al., 1986). The paper discs or septa containing volatiles were attached to one of the four plants with metal wire. The position of the treated tomato was randomised. Five minutes after placing the volatiles on the plant, whiteflies were released. For each component at least 8 replications were carried out. Treatments were administered in a setup in which compounds were always added to the same plant in comparison to 3 plants with empty carriers. Prior to each assay with volatiles, the experiment was done with the 4 plants in an untreated setup, in the same position to allow comparison in the same background.
Host preference with and without manipulated headspace by B. tabaci was explored in free choice assays. In each setup four cultivated tomatoes (cv. Moneymaker) were tested as described earlier. For the bioassays with volatiles rubber septa (Sigma Aldrich Z167258) were extracted with CH2Cl2 for 24 hours and dried to the air for 3 days. The desired blend of volatiles was added to the rubber septa in 100 μl hexane. Bioassays with pure components, or mixtures of pure components were carried out as described above.
To positively confirm the correlation between the 7 candidate components and B. tabaci behaviour, host preference was assayed in bioassays with pure components. The desired (blend of) pure volatile chemicals were added, as described above, to the Moneymaker background on filter paper cards. […] The percentage of whiteflies visiting the treated plant decreased with 44% on average (p<0.001) (FIG. 2a) while the untreated plants harboured increased numbers of B. tabaci. […] To assess whether the sum of these three components would yield a greater effect than p-cymene alone, a mixture of p-cymene: gamma-terpinene: beta-myrcene in the same ratio as found in accession LA2560 (1:12:3) was tested. […] Finally, the sesquiterpenes were tested, tomato-derived 7-epi-zingiberene as well as its oxidation product R-curcumene, and zingiberene and its oxidation product S-crucume.

The subject of data set [3] is adult whiteflies B. tabaci. To be noted: cited from earlier work.
The test system of data set [4] is fourth instar larvae of Colorado potato beetle. To be noted: cited from earlier work.
A short description of data set [5]: Conversion on exposure to air. In kind it is physicochemical.
Data set [6] has as its system pests of cut flowers (e.g. B. tabaci). To be noted: fumigant, 10-20 mg/l, after 2-4 hours of exposure; cited from earlier work.
The mark [7] stands for this setting: responses of B. tabaci antennae.
[8] abbreviates: n = 5, mean response and scatter, 10^-3 dilution in paraffin oil.

Entries after “also recorded” stand apart in the source; their conditions may differ.

Molecule `CC1=CC2C(CC1)C2(C)C` (stereo not shown) [2-carene] came in with an antennal response with B. tabaci antennae (setting [7]) of 3.9 mV. In the data set on B. tabaci [1], the “correlation with repellence or attraction of tomato accessions” value (“correlation” below) is reported as “significantly correlated to the more attractive cultivated S. lycopersicum plants”, the “Effect (semiochemical associated to B. tabaci repellence or attraction)” value was “attraction”, the “association (B. tabaci repellence or attraction)” value (“association” for short) is on record as “attraction” and the Effect on insects result is reported as “Attractant”. The “behavioural effect (significance of effect on B. tabaci behaviour in choice-assays)” value in the data set on B. tabaci [2] is listed as “ns”.

On to `CCCCCCCCCCCC(C)=O` [2-tridecanone], for which the toxic effect result in data set [3] is listed as “toxic effect”.

As for `CCCCCCCCCC(C)=O` [2-undecanone], in data set [4], the toxic effect entry is on record as “toxic effect”.

With `CC(C)=CCC[C@@H](C)[C@@H]1C=CC(C)=CC1` [7-epi-zingiberene], the antennal response in the data set with B. tabaci antennae (setting [8]) was 23 (0-53) μV. Moreover, in the data set with B. tabaci antennae (setting [7]), the antennal response turned out to be 2.3 mV. Besides, in data set [5], the “stability when exposed to air” value was “rapidly converted to R- and S-curcumene respectively”. Also, in the data set on B. tabaci [1], the “correlation” value was “appear to be responsible for rendering the S. habrochaites (former typicum) more unattractive”, the “Effect (semiochemical associated to B. tabaci repellence or attraction)” value was “repellence”, the “association” value is listed as “repellence” and the Effect on insects result is on record as “Repellent”. In addition, the “effect on whitefly behaviour” value in the data set on B. tabaci [2] is “clear repellent effect; also recorded: very effective in reducing the number of whitefly visitations”.

On to `CC1=CCC(C(C)C)C=C1` (stereo not drawn) [Alpha-phellandrene], for which the antennal response in the data set with B. tabaci antennae (setting [7]) was found to be 2.2 mV. Besides, in the data set on B. tabaci [1], the “correlation” value is given as “repellent compounds linked to S. pennelli”, the “association” value was “repellence” and the Effect on insects entry is “Repellent”.

In the data set on B. tabaci antennae (setting [7]), `CC1=CC=C(C(C)C)CC1` [Alpha-terpinene] had an antennal response of 4.1 mV. In addition, in the data set on B. tabaci [1], the “correlation” value is on record as “repellent compounds linked to S. pennelli”, the “association” value was “repellence” and the Effect on insects entry is “Repellent”.

In the case of `CC12CCC(CC1)C(C)(C)O2` [Cineole], the mortality entry in data set [6] is “caused mortality”.

Take `CC(C)=CCC[C@@H](C)c1ccc(C)cc1` [R-curcumene]: the “antennal recognition / sensitivity” value in the data set on B. tabaci antennae (electroantennography) is “highest sensitivity”. For the same molecule, the antennal response in the data set on B. tabaci antennae (setting [8]) is 50 (8-148) μV. This molecule also yielded an antennal response in the data set with B. tabaci antennae (setting [7]) of 5.0 mV. In the data set with B. tabaci [1], the “correlation” value was “appear to be responsible for rendering the S. habrochaites (former typicum) more unattractive”, the “Effect (semiochemical associated to B. tabaci repellence or attraction)” value is recorded as “repellence”, the “association” value is reported as “repellence” and the Effect on insects result was “Repellent”. Also, the “effect on whitefly behaviour” value with B. tabaci [2] was “clear repellent effect; also recorded: repelled”.

As for `CC(C)=CCC[C@H](C)c1ccc(C)cc1` [S-curcumene], the antennal response in the data set with B. tabaci antennae (setting [8]) is given as 27 (3-60) μV. The same molecule registered an antennal response with B. tabaci antennae (setting [7]) of 2.7 mV. In addition, in the data set with B. tabaci [1], the “Effect (semiochemical associated to B. tabaci repellence or attraction)” value is on record as “repellence”, the “association” value is “repellence” and the Effect on insects entry was “Repellent”. In the data set with B. tabaci [2], the “effect on whitefly behaviour” value is recorded as “did not appear to repel”.

As to `C=CC(=C)CCC=C(C)C` [beta-myrcene], the antennal response entry in the data set on B. tabaci antennae (setting [7]) was “ns”. Besides, in the data set on B. tabaci [1], the “correlation” value is on record as “repellent compounds linked to S. pennelli”, the “Effect (semiochemical associated to B. tabaci repellence or attraction)” value is listed as “repellence”, the “association” value is on record as “repellence” and the Effect on insects result is “Repellent”. Also, in the data set on B. tabaci [2], the “effect on whitefly behaviour” value is recorded as “did not influence whitefly behaviour” and the “behavioural effect (significance of effect on B. tabaci behaviour in choice-assays)” value is on record as “ns”.

Molecule `C=C1C=CC(C(C)C)CC1` (stereo not drawn) [beta-phellandrene] registered an antennal response with B. tabaci antennae (setting [7]) of 2.5 mV. Also, in the data set on B. tabaci [1], the “correlation” value is reported as “significantly correlated to the more attractive cultivated S. lycopersicum plants”, the “Effect (semiochemical associated to B. tabaci repellence or attraction)” value is recorded as “attraction”, the “association” value was “attraction” and the Effect on insects result is “Attractant”. For the same molecule, in the data set on B. tabaci [2], the “effect on whitefly behaviour” value is on record as “decreased tomato attractiveness significantly” and the “behavioural effect (significance of effect on B. tabaci behaviour in choice-assays)” value is recorded as “ns”.

Consider `CC1=CCC(C(C)C)=CC1` [gamma-terpinene], for which, in the data set on B. tabaci antennae (setting [7]), the antennal response came out at 1.9 mV. In addition, in the data set on B. tabaci [1], the “correlation” value is reported as “repellent compounds linked to S. pennelli”, the “Effect (semiochemical associated to B. tabaci repellence or attraction)” value is given as “repellence”, the “association” value was “repellence” and the Effect on insects result is on record as “Repellent”. For the same molecule, the “behavioural effect (significance of effect on B. tabaci behaviour in choice-assays)” value in the data set with B. tabaci [2] was “ns”.

As for `C=C(C)[C@H]1CC=C(C)CC1` [limonene], the antennal response in the data set with B. tabaci antennae (setting [7]) amounted to 3.5 mV. In the data set on B. tabaci [1], the “correlation” value is listed as “significantly correlated to the more attractive cultivated S. lycopersicum plants”, the “Effect (semiochemical associated to B. tabaci repellence or attraction)” value is given as “attraction”, the “association” value was “attraction” and the Effect on insects result is on record as “Attractant”. In the data set on B. tabaci [2], the “behavioural effect (significance of effect on B. tabaci behaviour in choice-assays)” value is reported as “ns”.

As to `Cc1ccc(C(C)C)cc1` [para-cymene], in the data set with B. tabaci antennae (setting [7]), the antennal response was 2.4 mV. In addition, in the data set on B. tabaci [1], the “correlation” value is reported as “repellent compounds linked to S. pennelli”, the “Effect (semiochemical associated to B. tabaci repellence or attraction)” value was “repellence”, the “association” value is recorded as “repellence” and the Effect on insects entry was “Repellent”. In addition, the “decrease of percentage of whiteflies visiting the treated plant” value in the data set with B. tabaci [2] (on average, vs same plant in untreated setup, p-cymene 10 μg, mixture ratio 1:12:3) was 44%.

In the case of `C=CCc1ccc2c(c1)OCO2` [safrole], the mortality entry in data set [6] is listed as “caused mortality”.

On to `CC(C)=CCC[C@H](C)[C@@H]1C=CC(C)=CC1` [zingiberene], for which, in the data set on B. tabaci antennae (setting [8]), the antennal response was 21 (5-30) μV. This molecule came in with an antennal response with B. tabaci antennae (setting [7]) of 2.1 mV. In data set [5], the “stability when exposed to air” value was “rapidly converted to R- and S-curcumene respectively”. In the data set with B. tabaci [1], the “Effect (semiochemical associated to B. tabaci repellence or attraction)” value is “repellence”, the “association” value is recorded as “repellence” and the Effect on insects entry was “Repellent”. In addition, the “effect on whitefly behaviour” value in the data set with B. tabaci [2] is recorded as “did not appear to be repelled”.

Source of the values: US9332753B2, “Plant volatiles based on R-curcumene” (Keygene N.V., priority 2009, dated 2016).
